# From patent publication US20160115540A1, “PRODRUGS AND DRUGS” (Biogen MA Inc., priority 2013, published 2016)
# Where a name gives a salt, the structure may show the parent alone.
# System: jejunum
# Assay: Transcriptional profiling on Affymetrix GeneChips, single dose, naïve mice: jejunum
# Assay type: in vivo, C57BL/6 mice
# Procedure: Treated mice were sacrificed at 2, 7, or 12 hours. Tissues (liver, spleen, kidney, jejunum, cortex, hippocampus, striatum and whole blood) were collected and analyzed by transcriptional profiling on mouse Affymetrix GeneChips.
# Tissues (liver, spleen, kidney, jejunum, cortex, hippocampus, striatum and whole blood) were collected and analyzed by transcriptional profiling on mouse Affymetrix GeneChips.
# Animals were exposed to CO2 and whole blood collected via cardiac puncture. Two 100 μl aliquots of whole blood were collected in 1.5 mL microcentrifuge tubes and snap frozen in liquid nitrogen. Peripheral (liver, spleen, kidney and jejunum) and CNS brain (cerebellum, hippocampus, striatum and cortex) tissues were harvested and snap frozen in liquid nitrogen, with special care taken to collect tissues of similar size and from the same location. All samples were stored at −80° C. until RNA extraction was conducted.
# For RNA preparation, frozen tissues were placed in 2 mL RNAse-free 96-well blocks with 1.5 mL QIAzol Lysis Reagent (QIAgen) and a 3.2 mm stainless steel bead (BioSpec Products, Bartlesville, Okla.). Tissues were disrupted for four cycles of 45 seconds in a Mini-Beadbeater (Biospec Products). RNA was extracted in chloroform and the aqueous phase was mixed with an equal volume of 70% ethanol. Extracted RNA was applied to RNeasy 96 plates and purified by the spin method according to the manufacturer's protocol (RNeasy 96 Universal Tissue Protocol, QIAgen, Hilden Germany).
# Automated sample amplifications and biotin labelings were carried out using the NuGEN Ovation RNA Amplification system V2 (Cat #3100), Ovation WB reagent (Cat #1300) and Encore Biotin module (Cat #4200) (NuGEN Technologies, Inc, San Carlos, Calif.) according to manufacturer's recommendations using an Arrayplex automated liquid handler (Beckman Coulter, Indianapolis, Ind.). Two micrograms of biotin labeled sscDNA probe were hybridized to Affymetrix GeneChip Affymetrix HT_MG-430_PM plate arrays with modified conditions as described in Allaire et al. Washing and staining of the hybridized arrays were completed as described in the GeneChip Expression analysis technical manual for HT plate arrays using the Genechip® Array Station (Affymetrix, Santa Clara, Calif.) with modifications as described in Allaire et al. The processed GeneChip® plate arrays were scanned using GeneTitan scanner (Affymetrix, Santa Clara, Calif.).
# Affymetrix scans were subject to quality control (QC) measures. These tests included a visual inspection of the distribution of raw signal intensities and an assessment of RNA degradation, relative log expression (RLE), and normalized unsealed standard error (NUSE). All sample scans that passed these QC metrics were included in the analysis.
# All CEL files were subjected to GC-content-based Robust Multi-array Average (GCRMA) normalization (version 2.20.0) (Irizarry R A, et al. Nucleic Acids Res 2003; 31:e15; Li C, et al. Genome Biol 2001; 2:[…]0032). Expression levels were log (base 2) transformed.
# All calculations and analyses were carried out using R (version 2.11.1) and Bioconductor computational tools (Gentleman R. Springer Science+Business Media 2005).
structure (smiles),measurement,setting,value
"COC(=O)/C=C/C(=O)O [MMF, monomethyl fumarate]",FC Akr1c12 (1422000_PM_at),"100MMF-vs-Veh, 12 h",1.52
same,FC Akr1c13 (1418672_PM_at),"100MMF-vs-Veh, 12 h",2.01
same,FC Aldh1a7 (1418601_PM_at),"100MMF-vs-Veh, 12 h",1.74
same,FC Apob (1457554_PM_at),"100MMF-vs-Veh, 12 h",−1.54
same,FC C030026M15Rik (1431418_PM_at),"100MMF-vs-Veh, 12 h",−1.81
same,FC Dio1 (1417991_PM_at),"100MMF-vs-Veh, 12 h",−1.51
same,FC Ephx1 (1422438_PM_at),"100MMF-vs-Veh, 12 h",2.17
same,FC Gss (1448273_PM_at),"100MMF-vs-Veh, 12 h",1.57
same,FC Gstm1 (1416416_PM_x_at),"100MMF-vs-Veh, 12 h",3.70
same,FC Gstm2 (1416411_PM_at),"100MMF-vs-Veh, 12 h",2.20
same,FC Kif1b (1451642_PM_at),"100MMF-vs-Veh, 12 h",−1.51
same,"Number of genes, DMF Only / MMF Only",Jejunum,35
same,"6-Sep, septin 6 (1424181_PM_at) differential expression","Jejunum, 2 hr",1.56
same,Areg (1421134_PM_at) differential expression,"Jejunum, 2 hr",2.71
same,Blvrb (1451386_PM_at) differential expression,"Jejunum, 2 hr",1.57
same,Bmp2 (1423635_PM_at) differential expression,"Jejunum, 2 hr",−1.55
same,Cbr1 (1460196_PM_at) differential expression,"Jejunum, 2 hr",1.53
same,Dnase2a (1430135_PM_at) differential expression,"Jejunum, 2 hr",1.79
same,Dppa5a (1416552_PM_at) differential expression,"Jejunum, 2 hr",2.64
same,Ereg (1419431_PM_at) differential expression,"Jejunum, 2 hr",2.00
same,Ero1l (1419030_PM_at) differential expression,"Jejunum, 2 hr",1.90
same,Esd (1441604_PM_at) differential expression,"Jejunum, 2 hr",1.52
same,Figf (1438953_PM_at) differential expression,"Jejunum, 2 hr",1.63
same,G6pd2 /// G6pdx (1422327_PM_s_at) differential expression,"Jejunum, 2 hr",1.74
same,Gabarapl1 (1416418_PM_at) differential expression,"Jejunum, 2 hr",1.52
same,Gclc (1424296_PM_at) differential expression,"Jejunum, 2 hr",3.99
same,Gsr (1421816_PM_at) differential expression,"Jejunum, 2 hr",2.19
same,Gss (1441931_PM_x_at) differential expression,"Jejunum, 2 hr",1.92
same,Gsta3 (1423436_PM_at) differential expression,"Jejunum, 2 hr",3.64
same,Gsta4 (1416368_PM_at) differential expression,"Jejunum, 2 hr",1.73
same,Gstm1 (1416416_PM_x_at) differential expression,"Jejunum, 2 hr",2.38
same,Hfe (1422645_PM_at) differential expression,"Jejunum, 2 hr",1.73
same,Hmox1 (1448239_PM_at) differential expression,"Jejunum, 2 hr",1.81
same,Htatip2 (1451814_PM_a_at) differential expression,"Jejunum, 2 hr",1.53
same,Lpin2 (1452837_PM_at) differential expression,"Jejunum, 2 hr",1.61
same,Lrp8 (1440882_PM_at) differential expression,"Jejunum, 2 hr",2.23
same,Mafg (1448916_PM_at) differential expression,"Jejunum, 2 hr",1.95
same,Nqo1 (1423627_PM_at) differential expression,"Jejunum, 2 hr",2.16
same,Osgin1 (1424022_PM_at) differential expression,"Jejunum, 2 hr",1.98
same,Pgm2 (1437240_PM_at) differential expression,"Jejunum, 2 hr",2.09
same,Prr5l (1452834_PM_at) differential expression,"Jejunum, 2 hr",−1.64
same,Prss8 (1418320_PM_at) differential expression,"Jejunum, 2 hr",2.41
same,Setd4 (1435405_PM_at) differential expression,"Jejunum, 2 hr",2.11
same,Slc2a1 (1426600_PM_at) differential expression,"Jejunum, 2 hr",1.68
same,Slc40a1 (1417061_PM_at) differential expression,"Jejunum, 2 hr",2.73
same,Slc48a1 (1450410_PM_a_at) differential expression,"Jejunum, 2 hr",1.62
same,Slfn2 (1450165_PM_at) differential expression,"Jejunum, 2 hr",−1.82
same,Sos1 (1421886_PM_at) differential expression,"Jejunum, 2 hr",−1.57
same,Srxn1 (1425351_PM_at) differential expression,"Jejunum, 2 hr",1.77
same,St3gal6 (1449078_PM_at) differential expression,"Jejunum, 2 hr",1.52
same,Tkt (1436605_PM_at) differential expression,"Jejunum, 2 hr",1.73
same,Tnfaip3 (1433699_PM_at) differential expression,"Jejunum, 2 hr",−1.67
same,Tox3 (1436600_PM_at) differential expression,"Jejunum, 2 hr",1.81
same,Ugt2b5 (1419622_PM_at) differential expression,"Jejunum, 2 hr",3.13
same,Abcc2 (1450109_PM_s_at) differential expression,"Jejunum, 7 hr",1.51
same,Abcc3 (1428988_PM_at) differential expression,"Jejunum, 7 hr",2.26
same,Acsm5 (1437662_PM_at) differential expression,"Jejunum, 7 hr",1.71
same,Akr1c12 /// Akr1c13 (1450455_PM_s_at) differential expression,"Jejunum, 7 hr",1.58
same,Akr1c13 (1418672_PM_at) differential expression,"Jejunum, 7 hr",1.86
same,Aldh1a7 (1418601_PM_at) differential expression,"Jejunum, 7 hr",1.86
same,Areg (1421134_PM_at) differential expression,"Jejunum, 7 hr",2.93
same,Asns (1451095_PM_at) differential expression,"Jejunum, 7 hr",1.60
same,Blvrb (1451386_PM_at) differential expression,"Jejunum, 7 hr",1.55
same,Capn13 (1437960_PM_at) differential expression,"Jejunum, 7 hr",−1.75
same,Cbr1 (1460196_PM_at) differential expression,"Jejunum, 7 hr",1.83
same,Ces1e (1419510_PM_at) differential expression,"Jejunum, 7 hr",2.44
same,Ddc (1426215_PM_at) differential expression,"Jejunum, 7 hr",2.03
same,Dppa5a (1416552_PM_at) differential expression,"Jejunum, 7 hr",1.88
same,Enkur (1428960_PM_at) differential expression,"Jejunum, 7 hr",−1.56
same,Entpd5 (1433763_PM_at) differential expression,"Jejunum, 7 hr",1.60
same,Esd (1441604_PM_at) differential expression,"Jejunum, 7 hr",2.15
same,Fam162a (1451385_PM_at) differential expression,"Jejunum, 7 hr",1.67
same,G6pd2 /// G6pdx (1422327_PM_s_at) differential expression,"Jejunum, 7 hr",2.06
same,G6pdx (1448354_PM_at) differential expression,"Jejunum, 7 hr",1.76
same,Gclc (1424296_PM_at) differential expression,"Jejunum, 7 hr",2.87
same,Gm3776 /// Gsta1 /// Gsta2 (1421041_PM_s_at) differential expression,"Jejunum, 7 hr",1.90
same,Gm14446 (1435529_PM_at) differential expression,"Jejunum, 7 hr",−1.65
same,Gpx2 (1449279_PM_at) differential expression,"Jejunum, 7 hr",1.53
same,Gsr (1421816_PM_at) differential expression,"Jejunum, 7 hr",3.13
same,Gss (1441931_PM_x_at) differential expression,"Jejunum, 7 hr",2.20
same,Gsta3 (1423436_PM_at) differential expression,"Jejunum, 7 hr",5.71
same,Gsta4 (1416368_PM_at) differential expression,"Jejunum, 7 hr",2.52
same,Gstm1 (1416416_PM_x_at) differential expression,"Jejunum, 7 hr",4.80
same,Gstm2 (1416411_PM_at) differential expression,"Jejunum, 7 hr",2.09
same,Gstm4 (1424835_PM_at) differential expression,"Jejunum, 7 hr",5.75
same,Gstm6 (1422072_PM_a_at) differential expression,"Jejunum, 7 hr",2.23
